# Results as given in ChEMBL document CHEMBL4622941, “Discovery of ASP5286: A novel non-immunosuppressive cyclophilin inhibitor for the treatment of HCV” (Bioorg Med Chem Lett, 2020).
# The source made the active and inactive calls. The calls are words filed in the database; no cut-off is given here. Where a SMILES comes first, the peptide text is derived from it. [ ]: non-standard residue; d: D form. MeBmt = C/C=C/C[C@@H](C)[C@@H](O)[C@H](NC)C(=O)O; NMePhg = CN[C@H](C(=O)O)c1ccccc1; NMeT = CN[C@H](C(=O)O)[C@@H](C)O; NMeL = CN[C@@H](CC(C)C)C(=O)O; NMeV = CN[C@H](C(=O)O)C(C)C; dNMeA = CN[C@H](C)C(=O)O; Sar = CNCC(=O)O
# How the values were obtained:
# [1] = Inhibition of cyclophilin in Hepatitis C virus assessed as inhibition of viral replicon replication in presence of 10% HSA by qRT-PCR analysis; parameters: species or system Hepacivirus hominis
# [2] = AUC (0 to 24 hrs) in po dosed rat; type: ADME, organism-based; parameters: time < 24 hr, route oral; details: in vivo
# [3] = Inhibition of cyclophilin in Hepatitis C virus assessed as inhibition of viral replicon replication in presence of 5% FBS by qRT-PCR analysis; parameters: species or system Hepacivirus hominis
# [4] = Inhibition of cyclophilin in Hepatitis C virus assessed as inhibition of viral replicon replication by qRT-PCR analysis; parameters: species or system Hepacivirus hominis
# [5] = Oral bioavailability in rat; type: ADME, organism-based; details: in vivo
# Splenocyte = experiment: Immunosuppressive activity in mouse splenocytes assessed as inhibition of ConA- induced proliferation; type: functional, cell-based
# Hepatitis C virus [6] = experiment: (§1) Antiviral activity against Hepatitis C virus genotype 1b infected in humanized liver SCID-Alb/uPA chimeric mouse assessed as reduction in serum HCV RNA level at 3.75 to 30 mg/kg, po bid administered via gavage for 14 days measured after 7 days without compound administration post-last dose; type: functional, organism-based; details: Hepacivirus hominis, subtype 1b
# Hepatitis C virus [7] = experiment: as §1, with “14 days cotreated with peginterferon-alpha2a at 10 ug/kg, sc administered twice a week and measured after” for “14 days measured after”; type: functional, organism-based; details: Hepacivirus hominis, subtype 1b
# [8] = Aqueous solubility of the compound at pH 6.8; type: physicochemical
Structure (SMILES),EC50 [1],AUC(0-t) at 24 h [2],EC50 [3],EC50 [4],bioavailability [5],solubility [8],IC50 (Splenocyte),Activity (Hepatitis C virus [6]),Activity (Hepatitis C virus [7])
C/C=C/C[C@@H](C)[C@@H](O)[C@H]1C(=O)N[C@@H]([C@@H](C)O)C(=O)N(C)[C@H](C)C(=O)N(C)[C@@H]([C@@H](C)OC)C(=O)N[C@@H](CC(C)C)C(=O)N(C)[C@@H](CC(C)C)C(=O)N[C@@H](C)C(=O)N[C@H](C)C(=O)N(C)[C@@H](CC(C)C)C(=O)N[C@@H](CC(C)C)C(=O)N(C)[C@@H](C(C)C)C(=O)N1C (cyclo(A[dA][NMeL]L[NMeV][MeBmt]T[dNMeA][NMeT](Me)L[NMeL])),0.061 µg/mL,16100 ng·h/mL,0.04 µg/mL,,36%,117 µg/mL,0.97 µg/mL,Active,Active
C/C=C/C[C@@H](C)[C@@H](O)[C@H]1C(=O)N[C@@H]([C@@H](C)O)C(=O)N(C)CC(=O)N(C)[C@@H]([C@@H](C)CC)C(=O)N[C@@H](CC(C)C)C(=O)N(C)[C@@H](CC(C)C)C(=O)N[C@@H](C)C(=O)N[C@H](C)C(=O)N(C)[C@@H](CC(C)C)C(=O)N[C@@H](CC(C)C)C(=O)N(C)[C@@H](C(C)C)C(=O)N1C,2 µg/mL,111 ng·h/mL,0.15 µg/mL,0.15 µg/mL,2.1%,0.2 µg/mL,0.77 µg/mL,,
C/C=C/C[C@@H](C)[C@@H](O)[C@H]1C(=O)N[C@@H]([C@@H](C)O)C(=O)N(C)CC(=O)N(C)[C@@H](C2CCCCC2)C(=O)N[C@@H](CC(C)C)C(=O)N(C)[C@@H](CC(C)C)C(=O)N[C@@H](C)C(=O)N[C@H](C)C(=O)N(C)[C@@H](CC(C)C)C(=O)N[C@@H](CC(C)C)C(=O)N(C)[C@@H](C(C)C)C(=O)N1C,,,,0.063 µg/mL,,,0.41 µg/mL,,
C/C=C/C[C@@H](C)[C@@H](O)[C@H]1C(=O)N[C@@H]([C@@H](C)O)C(=O)N(C)[C@H](C)C(=O)N(C)[C@@H]([C@@H](C)OO)C(=O)N[C@@H](CC(C)C)C(=O)N(C)[C@@H](CC(C)C)C(=O)N[C@@H](C)C(=O)N[C@H](C)C(=O)N(C)[C@@H](CC(C)C)C(=O)N[C@@H](CC(C)C)C(=O)N(C)[C@@H](C(C)C)C(=O)N1C,0.086 µg/mL,5680 ng·h/mL,0.061 µg/mL,,32%,> 122 µg/mL,1.9 µg/mL,,
C/C=C/C[C@@H](C)[C@@H](O)[C@H]1C(=O)N[C@@H]([C@@H](C)O)C(=O)N(C)CC(=O)N(C)[C@@H](CC(C)C)C(=O)N[C@@H](CC(C)C)C(=O)N(C)[C@@H](CC(C)C)C(=O)N[C@@H](C)C(=O)N[C@H](C)C(=O)N(C)[C@@H](CC(C)C)C(=O)N[C@@H](CC(C)C)C(=O)N(C)[C@@H](C(C)C)C(=O)N1C (cyclo(A[dA][NMeL]L[NMeV][MeBmt]T[Sar][NMeL]L[NMeL])),0.37 µg/mL,140 ng·h/mL,0.096 µg/mL,0.096 µg/mL,4.3%,6.5 µg/mL,0.026 µg/mL,,
C/C=C/C[C@@H](C)[C@@H](O)[C@H]1C(=O)N[C@@H]([C@@H](C)O)C(=O)N(C)[C@H](C)C(=O)N(C)[C@@H](C2CCCCC2)C(=O)N[C@@H](CC(C)C)C(=O)N(C)[C@@H](CC(C)C)C(=O)N[C@@H](C)C(=O)N[C@H](C)C(=O)N(C)[C@@H](CC(C)C)C(=O)N[C@@H](CC(C)C)C(=O)N(C)[C@@H](C(C)C)C(=O)N1C,,,,0.042 µg/mL,,,0.35 µg/mL,,
C/C=C/C[C@@H](C)[C@@H](O)[C@H]1C(=O)N[C@@H]([C@@H](C)O)C(=O)N(C)CC(=O)N(C)[C@@H](CC2CCCCC2)C(=O)N[C@@H](CC(C)C)C(=O)N(C)[C@@H](CC(C)C)C(=O)N[C@@H](C)C(=O)N[C@H](C)C(=O)N(C)[C@@H](CC(C)C)C(=O)N[C@@H](CC(C)C)C(=O)N(C)[C@@H](C(C)C)C(=O)N1C,,,,0.086 µg/mL,,,0.065 µg/mL,,

# Continued, in another order:
EC50 [1],AUC(0-t) at 24 h [2],EC50 [3],EC50 [4],bioavailability [5],solubility [8],Structure (SMILES),IC50 (Splenocyte),Activity (Hepatitis C virus [6]),Activity (Hepatitis C virus [7])
0.35 µg/mL,4210 ng·h/mL,0.038 µg/mL,0.038 µg/mL,40%,,C/C=C/C[C@@H](C)[C@@H](O)[C@H]1C(=O)N[C@@H]([C@@H](C)O)C(=O)N(C)[C@H](C)C(=O)N(C)[C@@H](CC(C)C)C(=O)N[C@@H](CC(C)C)C(=O)N(C)[C@@H](CC(C)C)C(=O)N[C@@H](C)C(=O)N[C@H](C)C(=O)N(C)[C@@H](CC(C)C)C(=O)N[C@@H](CC(C)C)C(=O)N(C)[C@@H](C(C)C)C(=O)N1C,0.07 µg/mL,,
,,,0.084 µg/mL,,,C/C=C/C[C@@H](C)[C@@H](O)[C@H]1C(=O)N[C@@H]([C@@H](C)O)C(=O)N(C)[C@H](C)C(=O)N(C)[C@@H](c2ccccc2)C(=O)N[C@@H](CC(C)C)C(=O)N(C)[C@@H](CC(C)C)C(=O)N[C@@H](C)C(=O)N[C@H](C)C(=O)N(C)[C@@H](CC(C)C)C(=O)N[C@@H](CC(C)C)C(=O)N(C)[C@@H](C(C)C)C(=O)N1C (cyclo(A[dA][NMeL]L[NMeV][MeBmt]T[dNMeA][NMePhg]L[NMeL])),1.35 µg/mL,,
,,,0.12 µg/mL,,,C/C=C/C[C@@H](C)[C@@H](O)[C@H]1C(=O)N[C@@H]([C@@H](C)O)C(=O)N(C)CC(=O)N(C)[C@@H](c2ccccc2)C(=O)N[C@@H](CC(C)C)C(=O)N(C)[C@@H](CC(C)C)C(=O)N[C@@H](C)C(=O)N[C@H](C)C(=O)N(C)[C@@H](CC(C)C)C(=O)N[C@@H](CC(C)C)C(=O)N(C)[C@@H](C(C)C)C(=O)N1C,0.8 µg/mL,,
0.11 µg/mL,9450 ng·h/mL,0.03 µg/mL,,74%,< 0.1 µg/mL,C/C=C/C[C@@H](C)[C@@H](O)[C@H]1C(=O)N[C@@H]([C@@H](C)O)C(=O)N(C)[C@H](C)C(=O)N(C)[C@@H]([C@@H](C)OC(C)(C)C)C(=O)N[C@@H](CC(C)C)C(=O)N(C)[C@@H](CC(C)C)C(=O)N[C@@H](C)C(=O)N[C@H](C)C(=O)N(C)[C@@H](CC(C)C)C(=O)N[C@@H](CC(C)C)C(=O)N(C)[C@@H](C(C)C)C(=O)N1C,1.6 µg/mL,,
0.05 µg/mL,13300 ng·h/mL,0.039 µg/mL,0.039 µg/mL,49%,< 0.1 µg/mL,C/C=C/C[C@@H](C)[C@@H](O)[C@H]1C(=O)N[C@@H]([C@@H](C)O)C(=O)N(C)[C@H](C)C(=O)N(C)[C@@H]([C@@H](C)CC)C(=O)N[C@@H](CC(C)C)C(=O)N(C)[C@@H](CC(C)C)C(=O)N[C@@H](C)C(=O)N[C@H](C)C(=O)N(C)[C@@H](CC(C)C)C(=O)N[C@@H](CC(C)C)C(=O)N(C)[C@@H](C(C)C)C(=O)N1C,1.1 µg/mL,,
